Source: PubChem BioAssay AID749 (The Scripps Research Institute Molecular Screening Center, 2007)
Activity calls are given as the source filed them.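 Rule for the calls: active = IC50 at or below 10 micromolar; inactive = IC50 above 10 micromolar.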

target: 5-hydroxytryptamine receptor 1E (Homo sapiens) (UniProt P28566); experiment: 5-HT1E receptor antagonist potency, dose response, cell-based (AID 749); conditions: CHO 5-HT1E Ga15 NFAT-BLA reporter, FRET
Sequence (P28566 whole entry, looked up): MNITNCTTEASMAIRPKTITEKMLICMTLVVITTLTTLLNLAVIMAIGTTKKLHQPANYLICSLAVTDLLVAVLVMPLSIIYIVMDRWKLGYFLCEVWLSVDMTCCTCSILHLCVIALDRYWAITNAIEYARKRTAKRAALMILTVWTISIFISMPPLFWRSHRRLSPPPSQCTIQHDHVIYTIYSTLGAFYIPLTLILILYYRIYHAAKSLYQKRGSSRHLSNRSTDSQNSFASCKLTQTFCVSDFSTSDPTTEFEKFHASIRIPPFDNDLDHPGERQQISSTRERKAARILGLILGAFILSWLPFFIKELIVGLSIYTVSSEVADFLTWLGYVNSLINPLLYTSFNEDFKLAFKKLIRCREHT

Row | SMILES | IC50
1 | COc1ccc(-c2cc(C(F)(F)F)nc(S(C)(=O)=O)n2)cc1OC | 2.91 µM
2 | CCn1c(=O)c(C(=O)Nc2nc3ccccc3[nH]2)c(O)c2ccccc21 | inactive
3 | CCn1nc(-c2cccs2)nc2c(=O)n(C)c(=O)nc1-2 | 0.629 µM
4 | COc1ccc(C2N(c3ccc(F)cc3)C(=O)C3CCCN32)cc1 (configuration not stated) | > 38.2 µM (inactive)
5 | COc1cc2c(cc1OC)-c1cc(N3CCCc4ccccc43)nc(=O)n1CC2 | > 50 µM (inactive)
6 | O=C1C2C3C=CC(CO)(O3)C2C(=O)N1c1ccc(-c2ccccc2)cc1 (configuration not stated) | 4.91 µM
7 | CCC(NC(=O)Nc1nnc(C(F)(F)F)s1)(C(F)(F)F)C(F)(F)F | inactive
8 | N#C/C(=C/c1ccc(N2CCCCCC2)o1)c1ccc(F)cc1 | 5.2 µM
9 | CN(C)c1nc(OCCNC(=O)COc2ccc(Cl)cc2Cl)nc(N2CCCCC2)n1 | > 50 µM (inactive)
10 | N#CCCS(=O)(=O)c1nnnn1-c1ccccc1 | 2.79 µM
11 | Cc1ccc(-n2nc3c([n+]2[O-])CCc2c-3no[n+]2[O-])cc1 | 3.9 µM
12 | CSc1ccccc1N=CC1=C(O)CC(C)(C)CC1=O | 2.35 µM
13 | COc1ccccc1-c1nnc2n1N=C(c1ccc(O)c(O)c1)CS2 | > 50 µM (inactive)
14 | Clc1ccc(-n2nnnc2Sc2ncnc3sccc23)cc1 | 3.5 µM
15 | COc1ccc(N2C(=O)CC(NCc3ccncc3)C2=O)cc1 (configuration not stated) | > 50 µM (inactive)
16 | CC(=O)Nc1cc(OC(C)=O)c2nonc2c1OC(C)=O | 2.1 µM
17 | COc1cccc(N2CCN(c3ncnc4c3[nH]c3ccc(F)cc34)CC2C)c1 (configuration not stated) | 1.82 µM
18 | COc1cccc(N2CCN(c3ncnc4c3cnn4-c3ccc(C)cc3C)CC2)c1 | 6.99 µM
19 | CCn1nc(-c2ccccc2)nc2c(=O)n(C)c(=O)nc1-2 | > 50 µM (inactive)
20 | CS(=O)(=O)c1nc(-c2ccccc2)cc(C(F)(F)F)n1 | 2.13 µM
21 | CC(C)=CCC(C)(C)CNC(=O)NC1CCCCC1 | > 50 µM (inactive)

Row | SMILES | IC50
22 | COc1ccc(-n2nnnc2S(=O)(=O)CC(=O)N2CCCCC2)cc1 | 2.61 µM
23 | O=C(Nc1ccc(-c2nc3ncccc3o2)cc1)c1ccc(Br)o1 | > 50 µM (inactive)
24 | CCCc1nnc2n1N=C(c1ccc(OC)c(OC)c1)CS2 | > 50 µM (inactive)
25 | CCCOc1ccc2nc(NC(=O)OC)[nH]c2c1 | > 50 µM (inactive)
26 | COCCOC(=O)c1[nH]c2c(c1C)C(=O)CC(c1ccccc1)C2 (configuration not stated) | > 50 µM (inactive)
27 | CS(=O)(=O)c1nc(-c2cccs2)cc(C(F)(F)F)n1 | 1.93 µM
28 | CC(=O)Oc1ccc(N2C(=O)C3C(C2=O)C2(C)C=CC3(C)O2)cc1 (configuration not stated) | 2.62 µM
29 | CCN(CC)c1ccc2c(Cl)c(Br)c(=O)oc2c1 | 0.999 µM
30 | O=S1(=O)C=C(Sc2nnc(-c3ccccc3)o2)c2ccccc21 | 1.04 µM
31 | COC(=O)Nc1nc2ccc(Sc3ccccc3)cc2[nH]1 | > 50 µM (inactive)
32 | COc1cc2c(cc1OC)C1=C(C#N)CC/C(=N\S(=O)(=O)c3ccccc3)N1CC2 | > 50 µM (inactive)
33 | Cc1ccc(S(=O)(=O)Nc2cccc3ncccc23)s1 | 2.91 µM
34 | O=C(Nc1ccc(N2CCOCC2)cc1)Nc1ccc2nc(-c3ccco3)c(-c3ccco3)nc2c1 | > 17.2 µM (inactive)
35 | CS(=O)(=O)c1nc(-c2ccco2)cc(C(F)(F)F)n1 | 2.26 µM
36 | COC(=O)/C(=C1/Oc2cc(C)oc(=O)c2S1)C(F)(F)F | 1.86 µM
37 | CCOc1ccc(C2=Nn3c(nnc3-c3ccccc3OC)SC2)cc1 | > 50 µM (inactive)
38 | COc1cc(NS(=O)(=O)c2ccc(C)cc2)c2ncccc2c1 | 3.75 µM
39 | COc1cccc(N2CCN(c3ncnc4c3[nH]c3ccccc34)CC2C)c1 (configuration not stated) | 8.24 µM
40 | CCCOCCOC(=O)c1[nH]c2c(c1C)C(=O)CC(c1cc(OC)ccc1OC)C2 (configuration not stated) | > 50 µM (inactive)
41 | CCOc1cccc(-c2nnc3n2N=C(c2cc(OC)ccc2OC)CS3)c1 | > 32.7 µM (inactive)
42 | Cn1c(-c2c(N)n(C3CCCC3)c3nc4ccccc4nc23)nc2ccccc21 | 3.64 µM
